Columns and labels:
[1] = system: cancer cell lines (pancreatic cancer cell line ASPC-1, lung cancer cell line A549, breast cancer cell line MCF-7, colorectal cancer cell line HCT 116); test: Test for inhibition of growth of cancer cell lines (WST-8 cell viability assay); type: cell-based, humans
Procedure: Pancreatic cancer cell lines ASPC-1, lung cancer cell lines A549, breast cancer cell lines MCF-7, and colorectal cancer cell lines HCT 116 of humans were distributed by Korean Cell Line Bank (KCLB, Seoul in Korea) and grown using culture media. Fetal bovine serum (FBS), 0.1 mM MEM nonessential amino acid (NEAA), 2 mM L-glutamine, and 1 % of penicillin-streptomycin were treated with trypsin every two-three days in a humidified cell culture incubator containing 5 % of CO2 at 37° C. by using DMEM and a 10 % culture flask according to guidelines provided by the KCLB, to subculture cells. […] After 24 hours, each of the nine sorts of compounds in table 2 was added to the well under six concentration conditions and was incubated for 24 hours. After the incubation, the culture medium was thrown away, and cell viability in each well was measured according to an instruction of the manufacturer, using a WST-8 cell viability assay kit (Quanti-MaxTM, BIOMAX). The analysis used the principle that the dehydrogenase of living cells decomposes tetrazolium salt to generate formazan, and based on this, the living cells were quantitatively evaluated. Reduced formazan dye (formazan salt) is soluble in the cell culture medium, and the amount of formazan (formazan) was measured using the direct proportionality to the number of viable cells.

[2] = system: normal lung cell lines MRC-5; test: Test for toxicity on normal cell lines (WST-8 cell viability assay); type: cell-based; conditions: rating relative to doxorubicin, 0-50 µM, incubated for 24 hours
Procedure: Normal lung cell lines MRC-5 were distributed by Korean Cell Line Bank (KCLB, Seoul in Korea) and grown using a complete culture medium. Fetal bovine serum (FBS), 0.1 mM MEM nonessential amino acid (NEAA), 2 mM L-glutamine, and 1 % of penicillin-streptomycin were treated with trypsin every two-three days in a humidified cell culture incubator containing 5 % of CO2 at 37° C. by using DMEM and a 10 % culture flask according to guidelines provided by the KCLB, to subculture cells. The culture was incubated until it reached 80-90 % confluence, and the cells continuously moved to the culture flask for a test of inhibition of growth of cancer cell lines.
The normal cell lines (MRC-5) were seeded in 96-well plates at about 7,000 cells per well. […]
After the incubation, the culture medium was thrown away, and cell viability in each well was measured according to an instruction of the manufacturer, using a WST-8 cell viability assay kit (Quanti-MaxTM, BIOMAX).
The analysis used the principle that the dehydrogenase of living cells decomposes tetrazolium salt to generate formazan, and based on this, the living cells were quantitatively evaluated. Reduced formazan dye (formazan salt) is soluble in the cell culture medium, and the amount of formazan (formazan) was measured using the direct proportionality to the number of viable cells.

Structure (SMILES) | Test for inhibition of growth of cancer cell line ([1]; rating relative to doxorubicin, 0-50 µM, incubated for 24 hours) | Test for toxicity on normal cell line [2] | total number of cancer cells remained within 24 hours ([1]; concentrations of Table 2 (0-50 µM), 24 hours) [%]
CCCSc1ccc2nc(NC3O[C@H](CO)[C@@H](O)[C@H](O)[C@H]3O)[nH]c2c1 (stereo partly drawn) [Albendazole-glucose conjugate (Al-G), 6-(propylthio)-1H-benzoimidazol-2-aminoglucose] | C (a C rating denotes a very weak quality (10 times or more)) | AAA (an AAA rating denotes no toxicity (1/30 times or less)) | 
COc1cccc2c1C(=O)c1c(O)c3c(c(O)c1C2=O)C[C@@](O)(C(=O)CO)C[C@@H]3O[C@H]1C[C@H](N)[C@H](O)[C@H](C)O1 [doxorubicin, reference compound] |  |  | ≥ 70
